Where a SMILES comes first, the peptide text is derived from it.
Assays:
[1] = Antagonist activity of compound against TAPP-induced electrically evoked contractions of guinea pig ileum; assay type: functional, Cavia porcellus
[2] = target: Delta-type opioid receptor (Rattus norvegicus, UniProt P33533); test: Inhibition of [3H][Ile5,6]-deltorphin I binding to rat Opioid receptor delta
[3] = target: Mu-type opioid receptor (Rattus norvegicus, UniProt P33535); test: Inhibition of [3H]naloxone binding to rat Opioid receptor mu
[4] = species on record: Mus musculus; test: Antagonist activity of compound against DPDPE-induced electrically evoked contractions of mouse vas deferens; assay type: functional
[5] = Ratio of antagonist activity against TAPP-induced contractions of guinea pig ileum to that of DPDPE-induced contractions of mouse vas deferens; assay type: functional, Cavia porcellus
[6] = species on record: Mus musculus; test: Atagonist activity of compound against DPDPE-induced electrically evoked contractions of mouse vas deferens; assay type: functional

Mu-type opioid receptor, sequence (P33535 whole entry): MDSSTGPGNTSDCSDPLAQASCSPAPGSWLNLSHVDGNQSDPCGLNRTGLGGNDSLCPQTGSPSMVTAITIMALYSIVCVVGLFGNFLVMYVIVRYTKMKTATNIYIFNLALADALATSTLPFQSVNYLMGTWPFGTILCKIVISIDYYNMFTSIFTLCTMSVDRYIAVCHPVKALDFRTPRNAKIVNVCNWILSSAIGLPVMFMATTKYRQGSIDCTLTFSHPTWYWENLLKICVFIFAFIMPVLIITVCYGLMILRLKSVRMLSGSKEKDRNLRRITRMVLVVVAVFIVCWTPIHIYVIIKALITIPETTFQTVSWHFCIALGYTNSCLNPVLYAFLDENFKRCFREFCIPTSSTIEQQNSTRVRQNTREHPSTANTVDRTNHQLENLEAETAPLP
Delta-type opioid receptor, sequence (P33533 whole entry): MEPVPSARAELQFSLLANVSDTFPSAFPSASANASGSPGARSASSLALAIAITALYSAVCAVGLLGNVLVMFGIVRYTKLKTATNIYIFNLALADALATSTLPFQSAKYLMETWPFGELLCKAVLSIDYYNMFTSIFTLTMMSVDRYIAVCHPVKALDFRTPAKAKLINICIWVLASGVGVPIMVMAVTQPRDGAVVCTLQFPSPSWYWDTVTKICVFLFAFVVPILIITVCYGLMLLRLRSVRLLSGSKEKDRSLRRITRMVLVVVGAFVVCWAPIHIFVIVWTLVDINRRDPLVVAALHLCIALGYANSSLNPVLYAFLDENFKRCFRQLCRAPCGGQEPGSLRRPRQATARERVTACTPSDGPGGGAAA

Compound	Ke [1] [nM]	Ki [2] [nM]	Ki [3] [nM]	Ke [4] [nM]	Ratio [5]	Ke [6] [nM]
Cc1cc(O)cc(C)c1C[C@@H](N)CN1Cc2ccccc2C[C@H](NC(=O)Cc2ccccc2)C1=O	207	684	15.1	185	1.666	
Cc1cc(O)cc(C)c1C[C@H](N)CN1Cc2ccccc2C[C@@H](NC(=O)Cc2ccccc2)C1=O	823	1100	23.5	1590	0.5	
Cc1cc(O)cc(C)c1C[C@@H](N)CN1Cc2ccccc2C[C@@H](NC(=O)Cc2ccccc2)C1=O	85.1	2900	41.7	1440	0.058	
Cc1cc(O)cc(C)c1C[C@H](N)CN1Cc2ccccc2C[C@H](NC(=O)Cc2ccccc2)C1=O	38.6	25.8	3.3	318	0.125	
N[C@@H](Cc1ccc(O)cc1)C(=O)N1Cc2ccccc2C[C@H]1C(=O)N[C@@H](Cc1ccccc1)C(=O)N[C@@H](Cc1ccccc1)C(=O)O (HELM PEPTIDE1{Y.[Tic].F.F}$$$$V2.0)						4.8

From ChEMBL document CHEMBL1139518, “A new structural motif for mu-opioid antagonists” (J Med Chem, 2005)
